Source: US9650363B2, “Integrin antagonist conjugates for targeted delivery to cells expressing LFA-1” (Hoffmann-La Roche Inc., priority 2012, dated 2017)

Molecular target: sLFA-1/ICAM-1 (Homo sapiens, UniProt P05107+P20701, DEL701-769)
Assay: sLFA-1/ICAM-1 ELISA (inhibition of 5dICAM-Fc binding to coated receptor)
Conditions: control compounds; ICAM-1 binding ELISA, sLFA-1 or Mac-1 coated plates
Description: • Small molecules equipped with a maleimide functionality were covalently conjugated to the RNA through a thioether linkage. To enable this chemistry, ˜60 mg of the RNA containing the 5′-disulfide linker was reduced in water (5 mL) to the corresponding thiol using 1 mL TCEP (0.5 M in water, obtained from Sigma Aldrich). Once analytical anion exchange HPLC indicated completion of the reaction (˜2 h at room temperature) the RNA was precipitated with 30 mL ethanol/3M NaOAc (pH 5.4) 32:1 (v/v) over night at −20° C. The pellet was collected by centrifugation and used for the subsequent small molecule conjugation. • In a typical conjugation reaction 10 mg RNA was dissolved in 2 mL sodium phosphate buffer (0.1 M, pH 7.0). To this solution the small molecule (0.12 mM) in ACN/NMP 1:1 (v/v) was added over a period of 5 minutes. […] The pellet was collected by centrifugation, dissolved in water and if necessary purified by anion exchange HPLC pursuing the procedure given above. If the conjugate is sufficiently pure the reaction mixture was filtered through a size exclusion column (Sephadex G-25, GE Healthcare). Annealing of Oligoribonucleotides to Generate siRNA • Complementary strands were annealed by combining equimolar RNA solutions. […] Absorbance was measured at 450 nm. […]

Sequence of sLFA-1/ICAM-1 (P20701 26-1090 limits assumed, stated change not applied): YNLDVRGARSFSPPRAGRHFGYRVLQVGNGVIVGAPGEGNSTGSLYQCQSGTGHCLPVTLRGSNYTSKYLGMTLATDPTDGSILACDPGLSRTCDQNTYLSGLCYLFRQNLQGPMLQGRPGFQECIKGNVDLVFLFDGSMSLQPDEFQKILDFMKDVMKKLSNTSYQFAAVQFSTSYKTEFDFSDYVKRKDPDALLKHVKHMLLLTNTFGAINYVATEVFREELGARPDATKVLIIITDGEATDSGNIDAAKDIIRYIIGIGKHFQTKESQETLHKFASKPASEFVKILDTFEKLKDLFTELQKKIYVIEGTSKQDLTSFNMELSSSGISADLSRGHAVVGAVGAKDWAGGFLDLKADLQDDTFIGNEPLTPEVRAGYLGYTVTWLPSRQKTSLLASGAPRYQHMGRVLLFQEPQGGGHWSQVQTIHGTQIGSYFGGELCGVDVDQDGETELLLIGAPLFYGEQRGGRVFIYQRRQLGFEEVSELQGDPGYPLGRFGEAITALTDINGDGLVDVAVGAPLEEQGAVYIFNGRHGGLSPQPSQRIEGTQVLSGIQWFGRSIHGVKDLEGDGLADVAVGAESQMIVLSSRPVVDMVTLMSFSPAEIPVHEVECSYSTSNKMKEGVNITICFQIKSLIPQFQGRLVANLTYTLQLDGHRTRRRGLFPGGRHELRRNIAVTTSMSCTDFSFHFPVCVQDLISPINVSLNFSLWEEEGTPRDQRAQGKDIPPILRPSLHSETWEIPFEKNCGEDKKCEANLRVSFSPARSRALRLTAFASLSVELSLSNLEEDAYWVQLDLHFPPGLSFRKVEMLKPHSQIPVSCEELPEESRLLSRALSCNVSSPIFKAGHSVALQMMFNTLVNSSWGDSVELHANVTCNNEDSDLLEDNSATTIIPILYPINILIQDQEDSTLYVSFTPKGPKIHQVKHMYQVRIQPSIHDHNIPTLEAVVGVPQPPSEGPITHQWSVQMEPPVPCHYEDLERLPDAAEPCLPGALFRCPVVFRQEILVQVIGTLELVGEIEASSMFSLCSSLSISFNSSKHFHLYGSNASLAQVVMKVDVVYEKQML
Sequence of sLFA-1/ICAM-1 (P05107 23-700 limits assumed, stated change not applied): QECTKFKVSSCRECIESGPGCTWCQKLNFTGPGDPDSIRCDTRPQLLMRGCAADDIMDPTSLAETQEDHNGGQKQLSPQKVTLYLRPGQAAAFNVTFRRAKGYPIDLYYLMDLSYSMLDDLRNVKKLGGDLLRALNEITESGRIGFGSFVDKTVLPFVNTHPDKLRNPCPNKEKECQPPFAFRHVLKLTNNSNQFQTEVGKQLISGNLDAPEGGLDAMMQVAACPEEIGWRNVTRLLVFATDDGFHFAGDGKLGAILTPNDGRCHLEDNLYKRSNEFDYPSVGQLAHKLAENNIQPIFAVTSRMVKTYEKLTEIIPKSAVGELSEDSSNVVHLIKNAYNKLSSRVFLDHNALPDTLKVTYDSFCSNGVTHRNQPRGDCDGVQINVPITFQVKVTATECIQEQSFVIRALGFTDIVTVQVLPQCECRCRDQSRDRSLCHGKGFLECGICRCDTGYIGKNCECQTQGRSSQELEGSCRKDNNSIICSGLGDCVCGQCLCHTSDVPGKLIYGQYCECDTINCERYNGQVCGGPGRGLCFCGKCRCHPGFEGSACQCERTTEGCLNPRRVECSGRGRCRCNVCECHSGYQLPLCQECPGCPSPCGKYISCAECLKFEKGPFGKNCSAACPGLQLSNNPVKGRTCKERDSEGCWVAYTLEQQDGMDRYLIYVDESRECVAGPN

Row | IC50 | SMILES
1 | ~11 nM | O=C(NCc1cccc(O)c1)c1cc(Cl)c(C(=O)N[C@@H](CNC(=O)c2cc(O)cc(O)c2)C(=O)O)c(Cl)c1 [compound 143]
2 | ~37 nM | Cc1cc(C(=O)NCc2cccc(O)c2)cc(C)c1C(=O)N[C@@H](CNC(=O)c1cccs1)C(=O)O [compound 142]
